Patent US6989270B1, “Using polyamide nucleic acid oligomers to engender a biological response” (Mayo Foundation for Medical Education and Research, priority 1997, dated 2006)

Tests used:
mu-1 receptor (MU1R) = assay: Tail flick test of MOR-mediated anti-nociception in PNA-treated rats; assay type: in vivo, rat
Procedure: The injection of MOR into rats produces a potent anti-nociceptive response. This response is mediated by specific MOR receptors and is inhibited by naloxone. A very sensitive and reliable tail flick test was devised and used to measure the anti-nociceptive effects of MOR (D'Amour F. E. and Smith D. L, J. Pharm. Exp. Therap. 72:74-79 (1941)).
MU1R-PNA, NTR1-PNA, and ACSF treated as well as untreated rats were analyzed using the MOR-specific tail flick test. One day after the last treatment, each rat was analyzed as follows. Thirty minutes prior to testing, a pre-drug latency measurement was made by placing the tail of the restrained rat in oil maintained at a temperature of 60° C. and recording the time elapsed before the rat flicked its tail. After making this measurement, an appropriate dose of MOR (5 mg/kg of body weight) at a volume of about 200 μl was injected i.p. Thirty minutes after administering MOR, the restrained rat's tail was again placed in the oil maintained at 60° C. and the latency between the time the tail was placed in the oil and the time the rat flicked its tail was measured. […] Tail flick tests were scored as the percent of MPE and calculated using the following equation: % MPE=[(post-drug latency−pre-drug latency)/(cut-off−pre-drug latency)]×100; where the cut-off is 12 seconds. […] This average for untreated control rats was used to set the baseline A MPE value to 100. All test situations were compared to this baseline response value derived from MOR responsive untreated controls. To test the significance, data were analyzed using the Student's t-test with p<0.05 being considered significant.
AS-NTR1-PNA, mismatch-AS-NTR1-PNA, and MU1R-PNA were injected intraperitoneally (10 mg/kg) independently, into separate groups of male Sprague-Dawley rats (Harlan, Prattville, Ala.). The sense-NTR1-PNA oligomer, however, was microinjected directly into the periaqueductal gray (PAG; 5 μg), the major area in the brain involved with perception of pain (nociception). […] Thirty minutes after receiving NT, animals were scored for anti-nociception (hot plate at 52° C.) and hypothermia (rectal probe). Again, anti-nociception scores were calculated as percent of maximum possible effect (% MPE) with the following equation: % MPE=[(post-drug latency time minus pre-drug latency time)/(cut-off time minus pre-drug latency time)]×100; where the cut-off time (i.e., the time when the animal was removed from the device) was 30 seconds for a hot plate test and 12 seconds for a tail flick test. Statistical analysis was done using the rank sum test.

morphine binding sites = assay: [3H]morphine binding in rest of brain and small intestine after i.p. AS-NTR1-PNA (Example 8); details: for Binding (% change vs control) Morphine: 24 hours after i.p. injection
MU1R mRNA = assay: Quantitative RT-PCR of MU1R mRNA relative to GAPDH; assay type: in vivo; details: treated intracranially, 5 μg
Procedure: (§1) Messenger RNA (mRNA) levels for NTR1, MU1R, and GAPDH were measured in control and PNA-treated animals. Briefly, total RNA was isolated from approximately 20 mg of tissue using the S.N.A.P. total RNA Isolation Kit (Invitrogen, Carlsbad, Calif.). Quantitative RT-PCR was performed on treated and control animals using GAPDH as an internal standard and PCR fragments of the human NTR and of a GAPDH deletion mutant as exogenous standards. First strand cDNA was synthesized from approximately 500 ng of total RNA using the cDNA Cycle Kit (Invitrogen, Carlsbad, Calif.). PCR was performed on a GeneAmp PCR System 9600 (Perkin Elmer, Norwalk, Conn.) using end-labeled primer and TAq DNA Polymerase (Gibco-BRL, Gaithersburg, Md.). Products were separated on a 5% acrylamide gel containing 7 M urea, and detected using a Storm860 Phosphoimager (Molecular Dynamics, Sunnyvale, Calif.). Data were analyzed using ImageQuant Software (Molecular Dynamics, Sunnyvale Calif.). To control for any diurnal mRNA level fluctuations that may occur, the PNA injection time was controlled such that the tissue harvest time was identical in each animal group.

NTR1 mRNA = assay: Quantitative RT-PCR of NTR1 mRNA relative to GAPDH; assay type: in vivo; details: treated intracranially, 5 μg
Procedure: as §1

[1] = system: NTR1 cDNA synthesis from total brain RNA; assay: In vitro reverse transcription assay; assay type: biochemical, rat; details: 1 μg total brain RNA incubated with 600 ng PNA
Procedure: An in vitro reverse transcription assay was performed-as follows. Total RNA was isolated from 20 mg of tissue using the RNeasy Kit (Qiagen, Chatsworth, Calif.). After isolation, total RNA (lug) was incubated with the PNA oligomers (600 ng) at 40° C. for 40 minutes. Exogenous cRNA standards were added, and cDNA was synthesized using the cDNA Cycle Kit and gene-specific primers for NTR1 and GAPDH (Invitrogen, Carlsbad, Calif.). The exogenous cRNA standards were synthesized from dsDNA templates using the Megashort-Script Kit (Ambion, Austin, Tex.). The dsDNA templates for exogenous cRNA standards for the NTR1- and GAPDH-specific cDNA reactions were constructed using the PCR MIMIC Construction Kit (Clontech) and composite primers. […] After using the cDNA Cycle Kit, quantitative PCR was performed on each sample. […] Products were detected using a Storm860 Phosphoimager (Molecular Dynamics, Sunnyvale, Calif.) and data were analyzed using Image Quant Software (Molecular Dynamics, Sunnyvale, Calif.).
Using this in vitro reverse transcription assay, 1 μg of total RNA isolated from the brain of an untreated rat was incubated with 600 ng of the AS-NTR1-PNA or mismatch-AS-NTR1PNA oligomer and NTR1 cDNA production assessed. […]

[2] = system: neurotensin receptor-1 (NTR1); assay: Hot plate test of NT-mediated anti-nociception in PNA-treated rats; assay type: in vivo, rat
NTR1 binding sites = assay: [125I]NT binding in PAG, rest of brain and small intestine after i.p. AS-NTR1-PNA (Example 8); assay type: in vivo, rat; details: for Binding (% change vs control) NT: 24 hours after i.p. injection

NTR1-PNA: 12-mer antisense PNA oligomer to rat NTR1 coding region, 5′-CATTGCTCAAAC-3′ (SEQ ID NO: 1) (all peptide nucleic acid (PNA))
anti-nociception score (tail flick) after MOR (mu-1 receptor (MU1R); 10 mg/kg i.p. treated animals lacking NT anti-nociception, MOR 5 mg/kg i.p.): 95 % MPE | MPE (tail flick) response to MOR challenge as percent of baseline response (mu-1 receptor (MU1R); PNA injected into PAG on days -4, -2, 0, MOR 5 mg/kg i.p.): indistinguishable from baseline responses | Responsiveness: Morphine (anti-nociception) (mu-1 receptor (MU1R); intraperitoneal administration, Table VI): normal | Binding (% change vs control) Morphine (morphine binding sites; Rest of Brain): 2 ± 2 % change vs control | Binding (% change vs control) Morphine (morphine binding sites; Small Intestine): −7 ± 8 % change vs control | number of morphine binding sites compared to controls (morphine binding sites; rest of brain or small intestine): no significant difference | change in MU1R/GAPDH ratio of mRNA (MU1R mRNA): no significant change | change in NTR1/GAPDH ratio of mRNA over time (NTR1 mRNA): no significant change | reduction in NTR1 cDNA synthesis [1]: 65% | duration of complete lack of NT responsiveness ([2]; after single oral 10 mg/kg): at least 48 hours | ED50 for reducing NT anti-nociception ([2]; intraperitoneal dose-response, one batch of PNA): 2.6 mg/kg | responsiveness to NT challenge (anti-nociception and hypothermia) ([2]; one day after single i.p. injection of 3 mg/kg): unable to respond to NT challenge | NT responsiveness ([2]; rats given single oral 10 mg/kg, Table III): LOST | hypothermic and anti-nociceptive responses to NT ([2]; twelve hours after 10 mg/kg by gastric intubation (oral), nine rats): either completely abolished (8/9) or nearly completely abolished (1/9) | reduction in the number of NTR1 binding sites vs untreated animals (NTR1 binding sites; PAG): 35% | Binding (% change vs control) NT (NTR1 binding sites; PAG): −35 ± 9 % change vs control | Binding (% change vs control) NT (NTR1 binding sites; Rest of Brain): −40 ± 1 % change vs control | Binding (% change vs control) NT (NTR1 binding sites; Small Intestine): −65 ± 5 % change vs control | reduction in the number of NTR1 binding sites vs untreated animals (NTR1 binding sites; rest of brain): 40% | reduction in the number of NTR1 binding sites vs untreated animals (NTR1 binding sites; small intestine): 65%
